From patent US9662360B2, “Treatment of herpes, pseudomonas, staph, and hepatitis” (priority 2008, dated 2017)
Where “and” joins values, the source holds several entries; their conditions need not be identical. Equal entries are not always repeated.

Legend:
[1] = test system: clinical HIV isolate ROJO in fresh human PBMCs; assay: PBMC/ROJO reverse transcriptase activity assay; format: cell-based; conditions: qualitative; PHA blastogenesis
Method: A microtiter based reverse transcriptase (RT) reaction was utilized. Tritiated thymidine triphosphate (NEN) (TTP) was resuspended in distilled H2O at 5 Ci/ml. Poly rA and oligo dT were prepared as a stock solution which was kept at −20° C. The RT reaction buffer was prepared fresh on a daily basis and consists of 125 μl MEGTA, 125 μl dH2O, 125 μl Triton X-100, 50 μl 1M Tris (pH 7.4), 50 μl MDTT, and 40 μl MMgCl2. These three solutions were mixed together in a ratio of 1 parts TTP, 2.5 parts poly rA:oligo dT, 2.5 parts reaction, the reaction buffer and 4 parts distilled water. Ten microliters of this reaction mixture was placed in a round bottom microtiter plate and 15 μl of virus containing supernatant was added and mixed. The plate was incubated at 37° C. and incubated for 60 minutes. […] Incorporated radioactivity was quantitated utilizing a Wallac Microbeta scintillation counter. […]
In the standard PBL assay (MOI: 0.2), the assay was ended on day 7 following collection of cell free supernatant samples for reverse transcriptase activity assay. In the low MOI PBL assay (MOI: 0.02), supernatant samples were collected on day 6, day 11, and day 14 post-infection and analyzed for […]. […]

[2] = test system: HIV-1 clinical isolate ADA in fresh human monocyte-macrophages; assay: Anti-HIV monocyte-macrophage assay (p24 ELISA); format: cell-based; conditions: for P-24 Activity: vs. ADA
Method: ELISA kits were purchased from Coulter. The assay is performed according to the manufacturer's recommendations. Prior to ELISA analysis, the reverse transcriptase activity assays were routinely performed and the values were used for incorporated radioactivity in the RT activity assay to determine the dilution of samples required for the ELISA. Control curves were generated in each assay to accurately quantititate the amount of capsid protein in each sample. Data was obtained by spectrophotometric analysis at 450 nm using a Molecular Devices Vmax plate reader. P24 concentrations were calculated from the optical density values by use of the Molecular Devices software package Soft Max.
For isolation of a adherent cells, 3×10^6 non-PHA stimulated peripheral blood cells were resuspended in Hanks buffered saline with calcium and magnesium supplemented with 10% human AB serum. The cells were placed in a 24-well microtiter plate at 37° C. for 2 hours. Non-adherent cells were removed by vigorously washing six times. The adherent cells were cultured for 7 days in RPM1 1640 tissue culture medium with 15% fetal bovine serum. The cultures were carefully monitored for confluency during this incubation period. Infection of the cells was performed with the monocytotropic HIV-1 strains BaL or ADA and the matched pair of AZT-sensitive and AZT-resistant virus isolates. Each of these virus isolates was obtained from the NLAID AIDS Research and Reference Reagent Program. High titer pools of each of these viruses have been harvested from infected cultures of peripheral blood adherent cells and frozen in 1.0 ml aliquots at −80° C. Monocyte-macrophage monolayers were infected at an MOI of 0.1. […] Compounds to be evaluated in the monocyte-macrophage assay were added to the monolayers shortly before infection in order to maximize the potential for identifying active compounds.
At two days post-infection, the medium was decanted and the cultures washed twice with complete medium in order to remove excess virus. Fresh medium alone or medium containing the appropriate concentration of drugs was added and incubation continued for an additional 5 days. XTT-tetrazolium or trypan blue exclusion assays for cell viability and HIV p24 ELISA assays for production of p24 core antigen were performed on Day 7 post-infection. ELISA kits were purchased from Coulter. Control curves were generated in each assay to accurately quantitate the amount of capsid protein in each sample. Data was obtained by spectrophotometric analysis at 450 nm using a Molecular Devices Vmax plate reader. P24 concentrations were calculated from the optical density values by use of the Molecular Device software package Soft Max.

Compound: Cc1cn([C@H]2C[C@H](N=[N+]=[N-])[C@@H](CO)O2)c(=O)[nH]c1=O [AZT, zidovudine]
- inhibition of replication of isolate ROJO in fresh human PBMCs [1]: expected level of activity
- activity in monocyte-macrophages infected with ADA ([2]; qualitative): expected level of activity
- P-24 Activity ([2]; 0.0004 μM): 1005.00 pg/mL and 1252.00 pg/mL and 954.10 pg/mL and 1097.00 pg/mL and 1160.00 pg/mL and 1098.00 pg/mL
- P-24 Activity ([2]; 0.0014 μM): 919.00 pg/mL and 1150.00 pg/mL and 678.70 pg/mL and 821.90 pg/mL and 594.80 pg/mL and 983.10 pg/mL
- P-24 Activity ([2]; 0.004 μM): 470.80 pg/mL and 660.90 pg/mL and 912.30 pg/mL and 914.90 pg/mL and 891.20 pg/mL and 499.20 pg/mL
